Source: patent US20210382058A1, “PATIENT SELECTION FOR TREATMENT OF MYC POSITIVE CANCERS WITH INDENOISOQUINOLINES” (Purdue Research Foundation, priority 2020, published 2021)
Where two headings read alike, the source gives them in different places.

Legend:
[1] = system: MYC protein expression in MCF-7 breast cancer cells; assay: Western blotting of MYC protein level in MCF-7 cells; assay type: cell-based, human; settings: Homo sapiens, MCF7; western blotting, MCF-7 cells, 0.5, 1, 2, and 4 μM, 24 hours; read-out: MYC Inhibition
Summary of the method: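 MCF-7 cells were exposed to compounds at 0.5, 1, 2 and 4 μM for 24 hours at 37° C. MYC was detected by immunoblot with ECL, using rabbit anti-MYC (1:1000) and anti-GAPDH (1:2000) as loading control.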

[2] = system: NCI-60 cancer cell lines; assay: NCI-60 cancer cell line drug screen (GI50, MGM); assay type: cell-based, human; settings: Homo sapiens; for GI50: read-out: Antiproliferative Activities [GI50 (μM)]; for mean GI50 across NCI-60 panel (MGM): average of GI50 values across the entire panel of NCI-60 cancer cell lines
Method: Cancer cells were incubated with the test compounds at five concentrations ranging from 100 μM to 10 nM for 48 h. […] The approximate average of GI50 values across the entire panel of NCI-60 cancer cell lines for each compound was recorded as the MGM value.

[3] = target: T1, human topoisomerase I (Homo sapiens, UniProt P11387); settings: relative topoisomerase I inhibition levels, previously determined, six levels (0 - 5, +++++ = 5); cited from earlier work
T1 sequence (P11387 1-765): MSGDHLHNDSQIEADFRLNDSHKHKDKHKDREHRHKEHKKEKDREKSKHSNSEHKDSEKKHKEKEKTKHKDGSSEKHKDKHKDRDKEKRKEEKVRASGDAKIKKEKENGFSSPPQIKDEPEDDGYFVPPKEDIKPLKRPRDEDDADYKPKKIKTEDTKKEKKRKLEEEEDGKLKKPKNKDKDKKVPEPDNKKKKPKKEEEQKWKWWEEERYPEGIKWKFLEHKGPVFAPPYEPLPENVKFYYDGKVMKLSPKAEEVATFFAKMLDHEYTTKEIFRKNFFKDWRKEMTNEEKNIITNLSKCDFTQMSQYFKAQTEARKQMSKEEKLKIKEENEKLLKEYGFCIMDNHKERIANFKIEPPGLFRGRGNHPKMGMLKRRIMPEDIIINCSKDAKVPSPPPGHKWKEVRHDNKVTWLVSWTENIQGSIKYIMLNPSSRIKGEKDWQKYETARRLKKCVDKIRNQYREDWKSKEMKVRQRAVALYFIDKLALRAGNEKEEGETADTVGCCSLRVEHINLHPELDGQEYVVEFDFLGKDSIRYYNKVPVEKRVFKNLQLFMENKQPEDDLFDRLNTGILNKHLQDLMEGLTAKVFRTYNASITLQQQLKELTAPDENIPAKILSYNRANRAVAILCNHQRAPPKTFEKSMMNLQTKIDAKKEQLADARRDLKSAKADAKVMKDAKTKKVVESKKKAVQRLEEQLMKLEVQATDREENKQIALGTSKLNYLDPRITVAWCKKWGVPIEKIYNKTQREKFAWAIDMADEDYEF

[4] = COLO 205, Colon Cancer, COLO 205
[5] = DU-145, Prostate Cancer, DU-145
[6] = HCC 2998, Colon Cancer, HCC-2998
[7] = HOP-62, Non-Small Cell Lung Cancer, HOP-62
[8] = HOP-92, Non-Small Cell Lung Cancer, HOP-92
[9] = Hs-578T, Breast Cancer, HS 578T
[10] = IGROV-1, Ovarian Cancer, IGROV1
[11] = MDA-MB-231, Breast Cancer, MDA-MB-231/ATCC
[12] = MDA-MB-435, Melanoma, MDA-MB-435
[13] = NCI-H23, Non-Small Cell Lung Cancer, NCI-H23
[14] = NCI-H322M, Non-Small Cell Lung Cancer, NCI-H322M
[15] = NCI-H460, Non-Small Cell Lung Cancer, NCI-H460
[16] = NCI-H522, Non-Small Cell Lung Cancer, NCI-H522
[17] = OVCAR-3, Ovarian Cancer, OVCAR-3
[18] = OVCAR-4, Ovarian Cancer, OVCAR-4
[19] = OVCAR-5, Ovarian Cancer, OVCAR-5
[20] = OVCAR-8, Ovarian Cancer, OVCAR-8
[21] = SK-OV-3, Ovarian Cancer, SK-OV-3

## CN(C)CCCn1c2c(c3ccc(-c4ccn[nH]4)cc3c1=O)C(=O)c1ccccc1-2 [Compound 30]
[1]
  minimal effective concentration: 4 µM
[2]; 786-0, Renal Cancer, 786-0
  GI50: 0.22 µM
[2]; A498, Renal Cancer, A498
  GI50: 10.6 µM
[2]; A549, Non-Small Cell Lung Cancer, A549/ATCC
  GI50: 0.06 µM
[2]; ACHN, Renal Cancer, ACHN
  GI50: 0.09 µM
[2]; BT-549, Breast Cancer, BT-549
  GI50: 3.1 µM
[2]; CCRF-CEM, Leukemia, CCRF-CEM
  GI50: 0.03 µM
[2]; [4]
  GI50: 4.92 µM
[2]; [5]
  GI50: 0.2 µM
[2]; EKVX, Non-Small Cell Lung Cancer, EKVX
  GI50: 2.91 µM
[2]; [6]
  GI50: 10 µM
[2]; HCT-15, Colon Cancer, HCT-15
  GI50: 0.09 µM
[2]; HCT-116, Colon Cancer, HCT-116
  GI50: 0.39 µM
[2]; HL-60, Leukemia, HL-60(TB)
  GI50: 0.03 µM
[2]; [7]
  GI50: 0.18 µM
[2]; [8]
  GI50: 0.13 µM
[2]; HT-29, Colon Cancer, HT29
  GI50: 0.34 µM
[2]; [9]
  GI50: 4.9 µM
[2]; [10]
  GI50: 0.58 µM
[2]; K562, Leukemia, K-562
  GI50: 0.34 µM
[2]; KM12, Colon Cancer, KM12
  GI50: 0.53 µM
[2]; LOX IMVI, Melanoma, LOX IMVI
  GI50: 0.1 µM
[2]; Leukemia, SR
  GI50: 0.02 µM
[2]; MCF7, Breast Cancer, MCF7
  GI50: 0.04 µM
[2]; [11]
  GI50: 1.27 µM
[2]; [12]
  GI50: 10.3 µM
[2]; MDA-MB-468, Breast Cancer, MDA-MB-468
  GI50: 7.84 µM
[2]; MOLT-4, Leukemia, MOLT-4
  GI50: 0.02 µM
[2]; Malme-3M, Melanoma, MALME-3M
  GI50: 0.93 µM
[2]; Melanoma, M14
  GI50: 1.65 µM
[2]; [13]
  GI50: 0.24 µM
[2]; NCI-H226, Non-Small Cell Lung Cancer, NCI-H226
  GI50: 0.27 µM
[2]; [14]
  GI50: 7.05 µM
[2]; [15]
  GI50: 0.04 µM
[2]; [16]
  GI50: 0.84 µM
[2]; [17]
  GI50: 6.09 µM
[2]; [18]
  GI50: 1.45 µM
[2]; [19]
  GI50: 1.51 µM
[2]; [20]
  GI50: 0.16 µM
[2]; Ovarian Cancer, NCl/ADR-RES
  GI50: 1.48 µM
[2]; Prostate Cancer, PC-3
  GI50: 1.21 µM
[2]; RPMI-8226, Leukemia, RPMI-8226
  GI50: 0.12 µM
[2]; RXF 393, Renal Cancer, RXF 393
  GI50: 1.66 µM
[2]; Renal Cancer, U0-31
  GI50: 0.3 µM
[2]; SF-268, CNS Cancer, SF-268
  GI50: 1.85 µM
[2]; SF-295, CNS Cancer, SF-295
  GI50: 0.36 µM
[2]; SF-539, CNS Cancer, SF-539
  GI50: 1.04 µM
[2]; SK-MEL-2, Melanoma, SK-MEL-2
  GI50: 18.2 µM
[2]; SK-MEL-5, Melanoma, SK-MEL-5
  GI50: 0.48 µM
[2]; SK-MEL-28, Melanoma, SK-MEL-28
  GI50: 2.01 µM
[2]; [21]
  GI50: 1.21 µM
[2]; SN12C, Renal Cancer, SN12C
  GI50: 0.25 µM
[2]; SNB-19, CNS Cancer, SNB-19
  GI50: 0.33 µM
[2]; SNB-75, CNS Cancer, SNB-75
  GI50: 1.39 µM
[2]; SW-620, Colon Cancer, SW-620
  GI50: 0.2 µM
[2]; T47D, Breast Cancer, T-47D
  GI50: 0.63 µM
[2]; TK-10, Renal Cancer, TK-10
  GI50: 2.75 µM
[2]; U-251, CNS Cancer, U251
  GI50: 0.18 µM
[2]; UACC-62, Melanoma, UACC-62
  GI50: 0.72 µM
[2]; UACC-257, Melanoma, UACC-257
  GI50: 12.3 µM
[2]
  mean GI50 across NCI-60 panel (MGM): 600 nM
[3]
  Top1 Inhibiton: 0 (no inhibition, 0, no MYC expression inhibition up to 4.0 μM)

## COc1cc2c(cc1O)-c1c(c3ccc([N+](=O)[O-])cc3c(=O)n1CCCn1ccnc1)C2=O [Compound 37]
[1]
  minimal effective concentration: 0.5 to 1 µM
[2]; 786-0, Renal Cancer, 786-0
  GI50: 0.33 µM
[2]; ACHN, Renal Cancer, ACHN
  GI50: 0.31 µM
[2]; BT-549, Breast Cancer, BT-549
  GI50: 0.35 µM
[2]; CAKI-1, Renal Cancer, CAKI-1
  GI50: 0.22 µM
[2]; CCRF-CEM, Leukemia, CCRF-CEM
  GI50: 0.66 µM
[2]; [4]
  GI50: 7.9 µM
[2]; [5]
  GI50: 0.33 µM
[2]; [6]
  GI50: 37.1 µM
[2]; HCT-15, Colon Cancer, HCT-15
  GI50: > 100 µM
[2]; HCT-116, Colon Cancer, HCT-116
  GI50: 0.74 µM
[2]; HL-60, Leukemia, HL-60(TB)
  GI50: 0.59 µM
[2]; [7]
  GI50: 0.59 µM
[2]; [8]
  GI50: 13.6 µM
[2]; HT-29, Colon Cancer, HT29
  GI50: 4.08 µM
[2]; [9]
  GI50: > 100 µM
[2]; [10]
  GI50: 11.3 µM
[2]; K562, Leukemia, K-562
  GI50: 2.25 µM
[2]; KM12, Colon Cancer, KM12
  GI50: 9.39 µM
[2]; LOX IMVI, Melanoma, LOX IMVI
  GI50: 0.3 µM
[2]; Leukemia, SR
  GI50: 0.03 µM
[2]; MCF7, Breast Cancer, MCF7
  GI50: 0.08 µM
[2]; [11]
  GI50: 18.1 µM
[2]; [12]
  GI50: 2.84 µM
[2]; MOLT-4, Leukemia, MOLT-4
  GI50: 0.24 µM
[2]; Malme-3M, Melanoma, MALME-3M
  GI50: 1.79 µM
[2]; [13]
  GI50: 0.68 µM
[2]; [14]
  GI50: 72.6 µM
[2]; [15]
  GI50: 0.24 µM
[2]; [16]
  GI50: 0.1 µM
[2]; [17]
  GI50: 1.35 µM
[2]; [18]
  GI50: 1.41 µM
[2]; [19]
  GI50: > 100 µM
[2]; [20]
  GI50: 0.89 µM
[2]; Ovarian Cancer, NCl/ADR-RES
  GI50: > 100 µM
[2]; Prostate Cancer, PC-3
  GI50: 7.22 µM
[2]; RPMI-8226, Leukemia, RPMI-8226
  GI50: 0.7 µM
[2]; RXF 393, Renal Cancer, RXF 393
  GI50: 1.35 µM
[2]; SF-268, CNS Cancer, SF-268
  GI50: 0.27 µM
[2]; SF-295, CNS Cancer, SF-295
  GI50: 0.33 µM
[2]; SF-539, CNS Cancer, SF-539
  GI50: 0.37 µM
[2]; SK-MEL-2, Melanoma, SK-MEL-2
  GI50: 30.8 µM
[2]; SK-MEL-5, Melanoma, SK-MEL-5
  GI50: 1.67 µM
[2]; SK-MEL-28, Melanoma, SK-MEL-28
  GI50: 16.4 µM
[2]; [21]
  GI50: 0.56 µM
[2]; SN12C, Renal Cancer, SN12C
  GI50: 0.42 µM
[2]; SNB-19, CNS Cancer, SNB-19
  GI50: 12.8 µM
[2]; SNB-75, CNS Cancer, SNB-75
  GI50: 2.97 µM
[2]; SW-620, Colon Cancer, SW-620
  GI50: 0.81 µM
[2]; T47D, Breast Cancer, T-47D
  GI50: 12 µM
[2]; TK-10, Renal Cancer, TK-10
  GI50: 2.54 µM
[2]; U-251, CNS Cancer, U251
  GI50: 0.27 µM
[2]; UACC-62, Melanoma, UACC-62
  GI50: 0.21 µM
[2]; UACC-257, Melanoma, UACC-257
  GI50: 25.3 µM
[2]
  mean GI50 across NCI-60 panel (MGM): 1860 nM
[3]
  Top1 Inhibiton: ++ (medium inhibition, ++, MYC expression inhibited at 2.0 μM, or no clear dose-dependent MYC inhibition)
